Measurements from US20260345619A1 (Principia Biopharma Inc., priority 2023, published 2026).

Assay: Pre-bronchodilator FEV1 and percent predicted FEV1 by spirometry, change from baseline
Type: in vivo, human
Details: 400 mg BID
Description: Spirometry is a standard test to measure patients' lung function.
The primary endpoint was the proportion of patients with LOAC. The key secondary endpoint for the study was change in pre-bronchodilator FEV1 from baseline at EOT.
Reversibility is defined as an increase of the absolute FEV1 after administration of bronchodilator and is measured by spirometry as postbronchodilator increase in FEV1 in percent of the prebronchodilator FEV1. After spirometry for measuring prebronchodilator FEV1, participants were to receive 2-4 puffs of albuterol/salbutamol or levalbuterol/levosalbutamol from a primed MDI. The postbronchodilator spirometry may have been repeated several times within 30 minutes after administration of bronchodilator. Alternatively, and only if it was consistent with usual office practice (to be documented), reversibility may have been performed using inhalation of nebulized albuterol/salbutamol or levalbuterol/levosalbutamol.
Secondary endpoints included pre-bronchodilator FEV1 change from baseline at EOT, ACQ-5 score change from baseline, and AQLQ score change from baseline. Other secondary and exploratory endpoints are described in Table 2.

[1] = Week 12, baseline weight ≥90 kg
[2] = Week 12, smoking history Former
[3] = EOT (Week 12), all others, mITT
[4] = Week 2, before LOAC and OCS use, as observed, mITT
[5] = Week 2, observed/LOCF imputed, mITT
[6] = Week 2, on-site conventional spirometry as observed, mITT
[7] = Week 4, before LOAC and OCS use, as observed, mITT
[8] = Week 4, observed/LOCF imputed, mITT
[9] = Week 4, on-site conventional spirometry as observed, mITT
[10] = Week 6, before LOAC and OCS use, as observed, mITT
[11] = Week 6, observed/LOCF imputed, mITT
[12] = Week 6, on-site conventional spirometry as observed, mITT
[13] = Week 8, before LOAC and OCS use, as observed, mITT
[14] = Week 8, observed/LOCF imputed, mITT
[15] = Week 8, on-site conventional spirometry as observed, mITT
[16] = Week 10, before LOAC and OCS use, as observed, mITT
[17] = Week 10, observed/LOCF imputed, mITT
[18] = Week 10, on-site conventional spirometry as observed, mITT
[19] = Week 12 (EOT), MMRM supplementary analysis, mITT
[20] = Week 12, before LOAC and OCS use, as observed, mITT

CC(C)(C=C(C#N)C(=O)N1CCC[C@@H](n2nc(-c3ccc(Oc4ccccc4)cc3F)c3c(N)ncnc32)C1)N1CCN(C2COC2)CC1 (mixture of isomers) [rilzabrutinib, (R)-2-[3-[4-amino-3-(2-fluoro-4-phenoxy-phenyl)pyrazolo[3,4-d]pyrimidin-1-yl]piperidine-1-carbonyl]-4-methyl-4-[4-(oxetan-3-yl)piperazin-1-yl]pent-2-enenitrile]
Pre-bronchodilator FEV1 change from baseline, LS Mean [1]: -0.25 L
Pre-bronchodilator FEV1 change from baseline, LS Mean Diff vs. placebo [1]: -0.37 L
Pre-bronchodilator FEV1 change from baseline, Mean [1]: -0.17 L
Pre-bronchodilator FEV1 change from baseline, LS Mean (Week 12, female): 0.00 L
Pre-bronchodilator FEV1 change from baseline, LS Mean Diff vs. placebo (Week 12, female): 0.04 L
Pre-bronchodilator FEV1 change from baseline, Mean (Week 12, female): -0.01 L
Pre-bronchodilator FEV1 change from baseline, LS Mean (Week 12, male): -0.23 L
Pre-bronchodilator FEV1 change from baseline, LS Mean Diff vs. placebo (Week 12, male): -0.16 L
Pre-bronchodilator FEV1 change from baseline, Mean (Week 12, male): -0.08 L
Pre-bronchodilator FEV1 change from baseline, LS Mean [2]: -0.57 L
Pre-bronchodilator FEV1 change from baseline, LS Mean Diff vs. placebo [2]: -0.21 L
Pre-bronchodilator FEV1 change from baseline, Mean [2]: -0.36 L
Pre-bronchodilator FEV1 change from baseline, LS Mean (Week 12, smoking history Never): -0.05 L
Pre-bronchodilator FEV1 change from baseline, LS Mean Diff vs. placebo (Week 12, smoking history Never): 0.03 L
Pre-bronchodilator FEV1 change from baseline, Mean (Week 12, smoking history Never): 0.02 L
Difference vs. placebo, LS mean change in pre-bronchodilator FEV1 (L) at Week 12 (95% CI −0.17, 0.19, p=0.9466): 0.01 L
Change from baseline in pre-bronchodilator FEV1, LS Mean (SE) [3]: -0.05 L
Change from baseline in pre-bronchodilator FEV1, LS Mean Diff vs. placebo (95% CI) [3]: 0.03 L
Change from baseline in pre-bronchodilator FEV1, Mean (SD) (EOT (Week 12), all others, mITT, n=22): -0.02 L
Change from baseline in pre-bronchodilator FEV1, Mean (SD) (EOT (Week 12), low EOS (<0.15) and low FeNO (<25), mITT, n=3): -0.17 L
LS Mean change from baseline in pre-bronchodilator FEV1 (L) at Week 12 (N=32, mITT): −0.07 (0.08) L
Pre-bronchodilator FEV1, mean [4]: 2.20 L
Pre-bronchodilator FEV1, median [4]: 2.08 L
Pre-bronchodilator FEV1 change from baseline, Mean [4]: 0.08 L
Pre-bronchodilator FEV1 change from baseline, median [4]: 0.04 L
Pre-bronchodilator FEV1 percent change from baseline, mean [4]: 4.47%
Pre-bronchodilator FEV1 percent change from baseline, median [4]: 2.02%
Pre-bronchodilator FEV1, mean [5]: 2.20 L
Pre-bronchodilator FEV1, median [5]: 2.08 L
Pre-bronchodilator FEV1 change from baseline, LS Mean [5]: 0.06 L
Pre-bronchodilator FEV1 change from baseline, LS Mean Diff vs. placebo [5]: 0.00 L
Pre-bronchodilator FEV1 change from baseline, Mean [5]: 0.08 L
Pre-bronchodilator FEV1 change from baseline, median [5]: 0.04 L
Pre-bronchodilator FEV1, mean [6]: 2.20 L
Pre-bronchodilator FEV1, median [6]: 2.08 L
Pre-bronchodilator FEV1 change from baseline, Mean [6]: 0.08 L
Pre-bronchodilator FEV1 change from baseline, median [6]: 0.04 L
Pre-bronchodilator FEV1 percent change from baseline, mean [6]: 4.47%
Pre-bronchodilator FEV1 percent change from baseline, median [6]: 2.02%
Pre-bronchodilator FEV1, mean [7]: 2.05 L
Pre-bronchodilator FEV1, median [7]: 1.96 L
Pre-bronchodilator FEV1 change from baseline, Mean [7]: 0.07 L
Pre-bronchodilator FEV1 change from baseline, median [7]: 0.02 L
Pre-bronchodilator FEV1 percent change from baseline, mean [7]: 3.72%
Pre-bronchodilator FEV1 percent change from baseline, median [7]: 0.55%
Pre-bronchodilator FEV1, mean [8]: 2.07 L
Pre-bronchodilator FEV1, median [8]: 1.96 L
Pre-bronchodilator FEV1 change from baseline, LS Mean [8]: 0.08 L
Pre-bronchodilator FEV1 change from baseline, LS Mean Diff vs. placebo [8]: -0.01 L
Pre-bronchodilator FEV1 change from baseline, Mean [8]: 0.07 L
Pre-bronchodilator FEV1 change from baseline, median [8]: 0.02 L
Pre-bronchodilator FEV1, mean [9]: 2.05 L
Pre-bronchodilator FEV1, median [9]: 1.96 L
Pre-bronchodilator FEV1 change from baseline, Mean [9]: 0.07 L
Pre-bronchodilator FEV1 change from baseline, median [9]: 0.02 L
Pre-bronchodilator FEV1 percent change from baseline, mean [9]: 3.72%
Pre-bronchodilator FEV1 percent change from baseline, median [9]: 0.55%
Pre-bronchodilator FEV1, mean [10]: 2.24 L
Pre-bronchodilator FEV1, median [10]: 2.01 L
Pre-bronchodilator FEV1 change from baseline, Mean [10]: 0.09 L
Pre-bronchodilator FEV1 change from baseline, median [10]: 0.07 L
Pre-bronchodilator FEV1 percent change from baseline, mean [10]: 3.99%
Pre-bronchodilator FEV1 percent change from baseline, median [10]: 3.66%
Pre-bronchodilator FEV1, mean [11]: 2.24 L
Pre-bronchodilator FEV1, median [11]: 2.01 L
Pre-bronchodilator FEV1 change from baseline, LS Mean [11]: -0.03 L
Pre-bronchodilator FEV1 change from baseline, LS Mean Diff vs. placebo [11]: -0.03 L
Pre-bronchodilator FEV1 change from baseline, Mean [11]: 0.09 L
Pre-bronchodilator FEV1 change from baseline, median [11]: 0.07 L
Pre-bronchodilator FEV1, mean [12]: 2.24 L
Pre-bronchodilator FEV1, median [12]: 2.06 L
Pre-bronchodilator FEV1 change from baseline, Mean [12]: 0.10 L
Pre-bronchodilator FEV1 change from baseline, median [12]: 0.07 L
Pre-bronchodilator FEV1 percent change from baseline, mean [12]: 4.61%
Pre-bronchodilator FEV1 percent change from baseline, median [12]: 5.14%
Pre-bronchodilator FEV1, mean [13]: 2.10 L
Pre-bronchodilator FEV1, median [13]: 1.83 L
Pre-bronchodilator FEV1 change from baseline, Mean [13]: 0.08 L
Pre-bronchodilator FEV1 change from baseline, median [13]: 0.11 L
Pre-bronchodilator FEV1 percent change from baseline, mean [13]: 3.28%
Pre-bronchodilator FEV1 percent change from baseline, median [13]: 3.73%
Pre-bronchodilator FEV1, mean [14]: 2.09 L
Pre-bronchodilator FEV1, median [14]: 1.83 L
Pre-bronchodilator FEV1 change from baseline, LS Mean [14]: -0.00 L
Pre-bronchodilator FEV1 change from baseline, LS Mean Diff vs. placebo [14]: 0.02 L
Pre-bronchodilator FEV1 change from baseline, Mean [14]: 0.04 L
Pre-bronchodilator FEV1 change from baseline, median [14]: 0.05 L
Pre-bronchodilator FEV1, mean [15]: 2.08 L
Pre-bronchodilator FEV1, median [15]: 1.86 L
Pre-bronchodilator FEV1 change from baseline, Mean [15]: 0.08 L
Pre-bronchodilator FEV1 change from baseline, median [15]: 0.09 L
Pre-bronchodilator FEV1 percent change from baseline, mean [15]: 3.30%
Pre-bronchodilator FEV1 percent change from baseline, median [15]: 3.64%
Pre-bronchodilator FEV1, mean [16]: 2.29 L
Pre-bronchodilator FEV1, median [16]: 1.93 L
Pre-bronchodilator FEV1 change from baseline, Mean [16]: 0.21 L
Pre-bronchodilator FEV1 change from baseline, median [16]: 0.12 L
Pre-bronchodilator FEV1 percent change from baseline, mean [16]: 10.71%
Pre-bronchodilator FEV1 percent change from baseline, median [16]: 4.52%
Pre-bronchodilator FEV1, mean [17]: 2.24 L
Pre-bronchodilator FEV1, median [17]: 1.93 L
Pre-bronchodilator FEV1 change from baseline, LS Mean [17]: 0.02 L
Pre-bronchodilator FEV1 change from baseline, LS Mean Diff vs. placebo [17]: 0.06 L
Pre-bronchodilator FEV1 change from baseline, Mean [17]: 0.13 L
Pre-bronchodilator FEV1 change from baseline, median [17]: 0.09 L
Pre-bronchodilator FEV1, mean [18]: 2.29 L
Pre-bronchodilator FEV1, median [18]: 1.93 L
Pre-bronchodilator FEV1 change from baseline, Mean [18]: 0.21 L
Pre-bronchodilator FEV1 change from baseline, median [18]: 0.12 L
Pre-bronchodilator FEV1 percent change from baseline, mean [18]: 10.71%
Pre-bronchodilator FEV1 percent change from baseline, median [18]: 4.52%
Change from baseline in pre-bronchodilator FEV1, Mean [19]: -0.02 L
Change from baseline in pre-bronchodilator FEV1, Median [19]: -0.04 L
Pre-bronchodilator FEV1, Mean [19]: 2.01 L
Pre-bronchodilator FEV1, Median [19]: 1.88 L
Change from baseline in pre-bronchodilator FEV1, LS Mean (Week 12 (EOT), MMRM, mITT): -0.01 L
Change from baseline in pre-bronchodilator FEV1, LS Mean diff vs. placebo (Week 12 (EOT), MMRM, mITT): 0.00 L
Pre-bronchodilator FEV1, mean [20]: 2.01 L
Pre-bronchodilator FEV1, median [20]: 1.88 L
Pre-bronchodilator FEV1 change from baseline, Mean [20]: -0.02 L
